Reference: BigSolDB 2.1

CCCc1nc(C(C)(C)O)c(C(=O)OCC)n1Cc1ccc(-c2ccccc2-c2nnnn2C(c2ccccc2)(c2ccccc2)c2ccccc2)cc1
solubility (mole fraction)
Conditions	278.15 K	283.15 K	288.15 K	293.15 K	298.15 K	303.15 K	308.15 K	313.15 K	318.15 K
in DMAc	0.00501	0.00574	0.00655	0.00756	0.00872	0.01	0.0114	0.0129	0.0148
in DMF	0.00117	0.00148	0.00186	0.00229	0.0028	0.00337	0.004	0.00471	0.00553
in acetone	0.000617	0.000854	0.00115	0.00154	0.00197	0.00242	0.0029	0.0035	0.00417
in acetonitrile	0.00027	0.000315	0.000373	0.00044	0.000513	0.000597	0.000689	0.00079	0.000901
in cyclohexanone	0.00729	0.00844	0.00967	0.0112	0.0128	0.0147	0.0166	0.0187	0.0211
in ethanol	8.35e-05	0.000102	0.000124	0.000147	0.000174	0.000206	0.000239	0.000277	0.000318
in ethyl acetate	0.00177	0.0021	0.00256	0.00308	0.00372	0.00445	0.00523	0.00607	0.00699
in isobutanol	0.00012	0.000145	0.000177	0.000216	0.000255	0.000302	0.000352	0.000408	0.000472
in isopropanol	5.42e-05	6.87e-05	8.5e-05	0.000102	0.000122	0.000144	0.00017	0.000197	0.000228
in methanol	4.18e-05	5.35e-05	6.64e-05	8.11e-05	9.59e-05	0.000112	0.000131	0.000152	0.000175
in n-butanol	0.000177	0.000211	0.000253	0.000298	0.000348	0.000401	0.000458	0.000521	0.000588
in n-propanol	0.000144	0.000175	0.000213	0.000253	0.000298	0.000346	0.000397	0.000454	0.000519
in toluene	0.00257	0.0032	0.00403	0.00503	0.00608	0.00738	0.00882	0.0104	0.0124
